Measured values as given in patent publication US7070811B2, “Directly compressible formulations of azithromycin” (Pfizer Inc., priority 2001, dated 2006).
Each block holds one compound with its values, some of them ahead of it.

Experiments:
[1] = Indices of Tableting Performance (Hiestand and Smith); format: physicochemical; details: bulk azithromycin; for Brittle Fracture Index (BFI): Lots 1, 2 and 4 milled (Fitzmill, 0.027" screen, knives, high speed) for this test; for Strain Index (SI) / Tensile Strength / Worst Case Bonding Index (BLw) × 10^2: Lots 1, 2 and 4 milled for this test
Protocol: Indices of tableting performance, for several azithromycin forms, were assessed to identify any mechanical deficiencies or attributes that may affect the ability to develop a direct compression tablet formulation of azithromycin. This assessment was performed in accordance with the procedures described in “Indices of Tableting Performance” H. E. N. Hiestand and D. P. Smith, Powder Technology 38 [1984] pp. 145–159.
More specifically, the Brittle Fracture Index, BFI, was calculated from the ratio of a material's regular tensile strength to its compromised tensile strength. Strain Index, SI, was determined from the dynamic indentation hardness test. Worst Case Bonding Index was determined by assessing the extent of particle bonding remaining after decompression assuming a very short compression dwell time and a plastic mechanism of particle separation during decompression.
Bulk azithromycin lots 1, 2, 4, 7, 10 and 11 are different crystalline forms, respectively, forms N, M, G, A, F and J. Lots 1, 2 and 4 were milled with a Fitzmill (Model JT, The Fitzpatrick Co., Elmhurst, Ill.) using a 0.027″ screen and knives at high speed in an attempt to match the smaller particle size of Lot 7. Lots 10 and 11 were evaluated as is due to their relatively small particle sizes.

[2] = Carr's Compressibility Index from initial and tapped density; format: physicochemical; details: for Carr's Index: blend with ˜60% drug loading
Protocol: Carr's Compressibility Index is a simple test to evaluate flowability by comparing both the initial and final (tapped) densities and the rate of packing down. A useful empirical guide to flow is given by Carr's compressibility index: Compressibility Index(%)=[(tapped density−initial density)/tapped density]×100
Carr's Compressibility Index of the azithromycin bulk was measured by taking an initial density of a 15 gram sample in a 100 ml graduated cylinder. The sample was tapped 2000 times on a VanKel Tap Density Tester (Model 50-1200, Edison, N.J.) and the tapped density of the 15 gram sample in the 100 ml graduated cylinder was taken. The procedure is described in Int. J. Pharm. Tech. & Prod. Mfr., 6(3) 10–16, 1985.
The ingredients were weighed (except for the magnesium stearate), combined and blended in a low shear blender for 30 minutes. The blend was passed through a U.S. standard No. 20 or No. 25 mesh screen to delump the blend. The screened blend was returned to the blender and blended for an additional 30 minutes. Prior to the addition of the magnesium stearate, the initial and tapped densities of the blend were determined from which a Carr's Compressibility Index for flow was calculated for the blend. Magnesium stearate was then added to the blend, after which it was blended for an additional five minutes.

- Brittle Fracture Index (BFI) ([1]; listed as #7 Form A): 0.10
- Strain Index (SI) ([1]; listed as #7 Form A): 0.0044
- Tensile Strength ([1]; listed as #7 Form A): 0.99 Mpa
- Worst Case Bonding Index (BLw) × 10^2 ([1]; listed as #7 Form A): 0.9
SMILES: CC[C@H]1OC(=O)[C@H](C)[C@@H](O[C@H]2C[C@@](C)(OC)[C@@H](O)[C@H](C)O2)[C@H](C)[C@@H](O[C@@H]2O[C@H](C)C[C@H](N(C)C)[C@H]2O)[C@](C)(O)C[C@@H](C)CN(C)[C@H](C)[C@@H](O)[C@]1(C)O [Lot 7, azithromycin]

- Carr's Index [2]: 37
SMILES: CC[C@H]1OC(=O)[C@H](C)[C@@H](O[C@H]2C[C@@](C)(OC)[C@@H](O)[C@H](C)O2)[C@H](C)[C@@H](O[C@@H]2O[C@H](C)C[C@H](N(C)C)[C@H]2O)[C@](C)(O)C[C@@H](C)CN(C)[C@H](C)[C@@H](O)[C@]1(C)O [Lot 8, azithromycin]

- Brittle Fracture Index (BFI) ([1]; listed as #10 Form F): 0.37
- Strain Index (SI) ([1]; listed as #10 Form F): 0.0041
- Tensile Strength ([1]; listed as #10 Form F): 1.62 Mpa
- Worst Case Bonding Index (BLw) × 10^2 ([1]; listed as #10 Form F): 0.9
- Carr's Index [2]: 34
SMILES: CC[C@H]1OC(=O)[C@H](C)[C@@H](O[C@H]2C[C@@](C)(OC)[C@@H](O)[C@H](C)O2)[C@H](C)[C@@H](O[C@@H]2O[C@H](C)C[C@H](N(C)C)[C@H]2O)[C@](C)(O)C[C@@H](C)CN(C)[C@H](C)[C@@H](O)[C@]1(C)O [Lot 10, azithromycin]

- Brittle Fracture Index (BFI) ([1]; listed as #11 Form J): 0.11
- Strain Index (SI) ([1]; listed as #11 Form J): 0.0043
- Tensile Strength ([1]; listed as #11 Form J): 0.69 Mpa
- Worst Case Bonding Index (BLw) × 10^2 ([1]; listed as #11 Form J): 0.7
SMILES: CC[C@H]1OC(=O)[C@H](C)[C@@H](O[C@H]2C[C@@](C)(OC)[C@@H](O)[C@H](C)O2)[C@H](C)[C@@H](O[C@@H]2O[C@H](C)C[C@H](N(C)C)[C@H]2O)[C@](C)(O)C[C@@H](C)CN(C)[C@H](C)[C@@H](O)[C@]1(C)O [Lot 11, azithromycin]

The remaining lines, values behind:

SMILES: CC[C@H]1OC(=O)[C@H](C)[C@@H](O[C@H]2C[C@@](C)(OC)[C@@H](O)[C@H](C)O2)[C@H](C)[C@@H](O[C@@H]2O[C@H](C)C[C@H](N(C)C)[C@H]2O)[C@](C)(O)C[C@@H](C)CN(C)[C@H](C)[C@@H](O)[C@]1(C)O [Lot 1, azithromycin]
- Brittle Fracture Index (BFI) ([1]; listed as #1 Form N): 0.05
- Strain Index (SI) ([1]; listed as #1 Form N): 0.0044
- Tensile Strength ([1]; listed as #1 Form N): 0.75 Mpa
- Worst Case Bonding Index (BLw) × 10^2 ([1]; listed as #1 Form N): 0.7

SMILES: CC[C@H]1OC(=O)[C@H](C)[C@@H](O[C@H]2C[C@@](C)(OC)[C@@H](O)[C@H](C)O2)[C@H](C)[C@@H](O[C@@H]2O[C@H](C)C[C@H](N(C)C)[C@H]2O)[C@](C)(O)C[C@@H](C)CN(C)[C@H](C)[C@@H](O)[C@]1(C)O [Lot 2, azithromycin]
- Brittle Fracture Index (BFI) ([1]; listed as #2 Form M): 0.10
- Strain Index (SI) ([1]; listed as #2 Form M): 0.0048
- Tensile Strength ([1]; listed as #2 Form M): 0.79 Mpa
- Worst Case Bonding Index (BLw) × 10^2 ([1]; listed as #2 Form M): 1.0

SMILES: CC[C@H]1OC(=O)[C@H](C)[C@@H](O[C@H]2C[C@@](C)(OC)[C@@H](O)[C@H](C)O2)[C@H](C)[C@@H](O[C@@H]2O[C@H](C)C[C@H](N(C)C)[C@H]2O)[C@](C)(O)C[C@@H](C)CN(C)[C@H](C)[C@@H](O)[C@]1(C)O [Lot 4, azithromycin]
- Strain Index (SI) ([1]; listed as #4 Form G): 0.0043
- Tensile Strength ([1]; listed as #4 Form G): 1.03 Mpa
- Worst Case Bonding Index (BLw) × 10^2 ([1]; listed as #4 Form G): 0.8

SMILES: CC[C@H]1OC(=O)[C@H](C)[C@@H](O[C@H]2C[C@@](C)(OC)[C@@H](O)[C@H](C)O2)[C@H](C)[C@@H](O[C@@H]2O[C@H](C)C[C@H](N(C)C)[C@H]2O)[C@](C)(O)C[C@@H](C)CN(C)[C@H](C)[C@@H](O)[C@]1(C)O [Lot 6, azithromycin]
- Carr's Compressibility Index ([2]; blend of 59.3 wt % azithromycin without glidant): 30
